Measurements: patent US8338422B2, “Indolin-2-ones and aza-indolin-2-ones” (Janssen Pharmaceutica NV, priority 2007, dated 2012)

What was measured:
PLK4 (h) = PLK4 (h) (Homo sapiens, UniProt O00444); test: PLK-4 human kinase assay (SPA); assay type: biochemical; conditions: for IC50: read-out: PLK4 pIC50 (converted)
Outline: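 Radiometric readout: 33P-labelled peptide captured on streptavidin SPA beads after EDTA stop, imaged by Leadseeker. Reaction ran 60 min at room temperature in Hepes pH 8.0 buffer. It contained 1 μM ATP with 2 nM [γ-33P]ATP, 10 μM biotinylated peptide and PLK4 (h) at 19 μg/ml.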

AuroraB (h) = AuroraB (h) (Homo sapiens, UniProt Q96GD4); test: Aurora-B human kinase assay (SPA); assay type: biochemical; conditions: for IC50: read-out: AuroraB pIC50 (converted)
Outline: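 Scintillation proximity assay: AuroraB (h) at 0.5 μg/ml with 3 μM biotinylated peptide, 0.5 μM ATP and 2.2 nM [γ-33P]ATP in 60 mM Hepes pH 7.5, 3 mM MgCl2, 3 mM MnCl2, 2 mM DTT. 60 min at room temperature, EDTA stop, streptavidin PVT beads read on Leadseeker.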

A2780 = test: Cellular proliferation assay (Alamar blue), A2780; assay type: cell-based; conditions: Homo sapiens, A2780, 72 h, A2780 cells, 72 hours with compound, 10% FCS, read-out: pIC50 A2780 (converted)
Outline: (§1)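 Proliferation was assessed over 72 h of compound treatment, following 24 h of seeding without compound, under 10% FCS, 37° C. and 5% CO2. Fluorescent resazurin product was measured and compared with control cells.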

SKOV3 = test: Cellular proliferation assay (Alamar blue), SKOV3; assay type: cell-based; conditions: 72 hours with compound, 10% FCS; for IC50: Homo sapiens, SK-OV-3, SKOV3 cells, read-out: pIC50 SKOV3 (converted); for pIC50 SKOV3: SKOV3 cells
Experimental: (§2) […] functional properties of these compounds was tested in cellular proliferation assays on a panel of different cell lines in the presence of 10% FCS serum (37° C. and 5% (v/v) CO2). In a first step these cells were seeded and incubated for 24 hours in the absence of compound. In the second step the cells were incubated for 72 hours with the compounds to be tested for 72 hours. The viable cell number was finally assessed in a standard Alamar blue cell viability assay.
(§3) The viable cell number was assessed by incubation for either 4 h (HCT-116, H1299, H460) 6 h (SKOV3, HT29, U87-MG, Colo205) or 24 h (A2780, PC3, MDA-MB-231, A549, MCF-7) with Alamar blue (Resazurin 9 μg/ml, K-Ferrocyanide 90 μM K-Ferricyanide 90 μM) and the converted fluorescent product was quantified on a fluorescent plate readed (544 nm/590 nm). Effect of the compounds is calculated as of on control cells.

HT-29 = test: Cellular proliferation assay (Alamar blue), HT-29; assay type: cell-based; conditions: HT-29 cells, 72 hours with compound, 10% FCS; for IC50: Homo sapiens, read-out: pIC50 HT-29 (converted)
Experimental: as §2, §3

HCT-116 = test: Cellular proliferation assay (Alamar blue), HCT-116; assay type: cell-based; conditions: Homo sapiens, HCT-116, 72 h, HCT-116 cells, 72 hours with compound, 10% FCS, read-out: pIC50 HCT-116 (converted)
Outline: as §1

Colo205 = test: Cellular proliferation assay (Alamar blue), Colo205; assay type: cell-based; conditions: 72 hours with compound, 10% FCS; for IC50: Homo sapiens, COLO 205, Colo205 cells, read-out: pIC50 Colo205 (converted); for pIC50 Colo205: Colo205 cells
Experimental: as §2, §3

A549 = test: Cellular proliferation assay (Alamar blue), A549; assay type: cell-based; conditions: A549 cells, 72 hours with compound, 10% FCS; for IC50: Homo sapiens, read-out: pIC50 A549 (converted)
Experimental: as §2, §3

H460 = test: Cellular proliferation assay (Alamar blue), H460; assay type: cell-based; conditions: 72 hours with compound, 10% FCS; for IC50: Homo sapiens, NCI-H460, H460 cells, read-out: pIC50 H460 (converted); for pIC50 H460: H460 cells
Experimental: as §2, §3

MDA/MB231 = test: Cellular proliferation assay (Alamar blue), MDA/MB231; assay type: cell-based; conditions: Homo sapiens, MDA-MB-231, 72 h, MDA/MB231 cells, 72 hours with compound, 10% FCS, read-out: pIC50 MDA/MB231 (converted)
Outline: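 Cells were grown in 10% FCS at 37° C. with 5% CO2, plated 24 h without compound, then exposed to compound for 72 h. Viability was measured by Alamar blue (resazurin 9 μg/ml) fluorescence at 544 nm/590 nm after 4 h (H460) or 24 h (MDA-MB-231) dye incubation, relative to control cells.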

MCF-7 = test: Cellular proliferation assay (Alamar blue), MCF-7; assay type: cell-based; conditions: 72 hours with compound, 10% FCS; for IC50: Homo sapiens, MCF7, MCF-7 cells, read-out: pIC50 MCF-7 (converted); for pIC50 MCF-7: MCF-7 cells
Experimental: as §2, §3

DU-145 = test: Cellular proliferation assay (Alamar blue), DU-145; assay type: cell-based; conditions: DU-145 cells, 72 hours with compound, 10% FCS; for IC50: Homo sapiens, read-out: pIC50 DU-145 (converted)
Experimental: as §2, §3

A431 = test: Cellular proliferation assay (Alamar blue), A431; assay type: cell-based; conditions: 72 hours with compound, 10% FCS; for IC50: Homo sapiens, A-431, A431 cells, read-out: pIC50 A431 (converted); for pIC50 A431: A431 cells
Experimental: as §2, §3

U87MG = test: Cellular proliferation assay (Alamar blue), U87MG; assay type: cell-based; conditions: Homo sapiens, U-87 MG, 72 h, U87MG cells, 72 hours with compound, 10% FCS, read-out: pIC50 U87MG (converted)
Outline: as §1

PC-3 = test: Cellular proliferation assay (Alamar blue), PC-3; assay type: cell-based; conditions: PC-3 cells, 72 hours with compound, 10% FCS; for IC50: Homo sapiens, PC-3, 72 h, read-out: pIC50 PC-3 (converted)
Outline: as §1

SK-N-SH = test: Cellular proliferation assay (Alamar blue), SK-N-SH; assay type: cell-based; conditions: SK-N-SH cells, 72 hours with compound, 10% FCS; for IC50: Homo sapiens, read-out: pIC50 SK-N-SH (converted)
Experimental: as §2, §3

H1299 = test: Cellular proliferation assay (Alamar blue), H1299; assay type: cell-based; conditions: Homo sapiens, NCI-H1299, 72 h, H1299 cells, 72 hours with compound, 10% FCS, read-out: pIC50 H1299 (converted)
Outline: as §1

GSK3β (h) = GSK3β (h) (Homo sapiens, UniProt P49841); test: GSK-3β human kinase assay (SPA); assay type: biochemical
Outline: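 Radiometric SPA read-out: after EDTA stop, biotinylated 33P-labelled peptide bound streptavidin PVT beads and was imaged on Leadseeker. Reaction: 60 min, room temperature, GSK3β (h) at 1 μg/ml, 1 μM substrate peptide, 1 μM ATP with 2 nM [γ-33P]ATP, Tris pH 7.4/MgCl2/DTT buffer.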

CDK1/CyclinB (h) = CDK1/CyclinB (h) (Homo sapiens, UniProt P06493); test: CDK1/CyclinB human kinase assay (FRET); assay type: biochemical
Outline: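 Z'-LYTE FRET format: 0.2 μg/ml enzyme with 2 μM Ser/Thr peptide 12 and 10 μM ATP in 50 mM Hepes pH 7.5, 10 mM MgCl2, 1 mM EGTA, 0.01% Brij-35, 60 min at room temperature. Protease development 60 min; coumarin/fluorescein emission ratio (460/538 nm, excitation 390 nm) reports phosphorylation.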

Chain of AuroraB (h) (Q96GD4 whole entry): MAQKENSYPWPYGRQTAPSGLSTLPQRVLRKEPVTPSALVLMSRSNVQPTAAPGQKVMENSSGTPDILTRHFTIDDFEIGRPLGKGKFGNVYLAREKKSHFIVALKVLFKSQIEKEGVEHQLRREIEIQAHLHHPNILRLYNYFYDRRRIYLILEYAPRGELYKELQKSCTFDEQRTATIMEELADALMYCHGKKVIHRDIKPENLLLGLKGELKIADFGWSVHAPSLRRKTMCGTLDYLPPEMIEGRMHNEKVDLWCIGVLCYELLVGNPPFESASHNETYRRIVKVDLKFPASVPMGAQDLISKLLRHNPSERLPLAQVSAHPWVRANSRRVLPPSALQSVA
Chain of PLK4 (h) (O00444 whole entry): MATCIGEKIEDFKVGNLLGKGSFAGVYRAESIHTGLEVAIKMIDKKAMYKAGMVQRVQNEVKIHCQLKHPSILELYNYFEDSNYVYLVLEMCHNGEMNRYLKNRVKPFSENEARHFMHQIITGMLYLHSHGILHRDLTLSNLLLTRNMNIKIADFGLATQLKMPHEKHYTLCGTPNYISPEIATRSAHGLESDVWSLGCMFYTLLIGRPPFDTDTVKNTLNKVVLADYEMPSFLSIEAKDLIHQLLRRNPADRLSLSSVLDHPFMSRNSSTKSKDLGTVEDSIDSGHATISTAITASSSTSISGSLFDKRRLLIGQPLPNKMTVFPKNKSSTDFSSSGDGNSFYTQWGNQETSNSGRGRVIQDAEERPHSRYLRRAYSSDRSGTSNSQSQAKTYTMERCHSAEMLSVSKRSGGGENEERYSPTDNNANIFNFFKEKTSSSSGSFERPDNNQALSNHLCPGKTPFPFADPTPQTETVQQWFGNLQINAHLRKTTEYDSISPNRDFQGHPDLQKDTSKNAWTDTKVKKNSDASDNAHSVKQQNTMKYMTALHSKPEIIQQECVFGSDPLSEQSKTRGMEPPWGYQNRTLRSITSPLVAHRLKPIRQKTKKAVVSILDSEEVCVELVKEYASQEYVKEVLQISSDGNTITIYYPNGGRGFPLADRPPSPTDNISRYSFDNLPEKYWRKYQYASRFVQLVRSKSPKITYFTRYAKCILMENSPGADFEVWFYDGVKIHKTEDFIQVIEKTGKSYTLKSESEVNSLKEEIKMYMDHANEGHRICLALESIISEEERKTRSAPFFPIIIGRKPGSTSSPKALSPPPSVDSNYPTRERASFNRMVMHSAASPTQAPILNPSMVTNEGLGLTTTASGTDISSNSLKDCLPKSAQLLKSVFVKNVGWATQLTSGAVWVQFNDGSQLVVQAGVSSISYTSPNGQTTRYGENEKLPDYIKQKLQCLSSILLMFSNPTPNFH
Chain of GSK3β (h) (P49841 whole entry): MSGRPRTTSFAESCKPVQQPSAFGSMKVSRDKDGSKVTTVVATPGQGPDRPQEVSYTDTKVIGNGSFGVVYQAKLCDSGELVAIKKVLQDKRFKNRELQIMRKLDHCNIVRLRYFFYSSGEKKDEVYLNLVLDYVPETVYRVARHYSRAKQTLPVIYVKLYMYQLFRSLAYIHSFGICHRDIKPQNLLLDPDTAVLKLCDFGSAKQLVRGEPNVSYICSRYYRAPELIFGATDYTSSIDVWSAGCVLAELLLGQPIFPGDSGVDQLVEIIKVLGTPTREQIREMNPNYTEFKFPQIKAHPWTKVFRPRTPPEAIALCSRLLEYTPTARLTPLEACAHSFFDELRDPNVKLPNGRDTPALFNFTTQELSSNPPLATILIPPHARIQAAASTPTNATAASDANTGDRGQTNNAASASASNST
Chain of CDK1/CyclinB (h) (P06493 whole entry): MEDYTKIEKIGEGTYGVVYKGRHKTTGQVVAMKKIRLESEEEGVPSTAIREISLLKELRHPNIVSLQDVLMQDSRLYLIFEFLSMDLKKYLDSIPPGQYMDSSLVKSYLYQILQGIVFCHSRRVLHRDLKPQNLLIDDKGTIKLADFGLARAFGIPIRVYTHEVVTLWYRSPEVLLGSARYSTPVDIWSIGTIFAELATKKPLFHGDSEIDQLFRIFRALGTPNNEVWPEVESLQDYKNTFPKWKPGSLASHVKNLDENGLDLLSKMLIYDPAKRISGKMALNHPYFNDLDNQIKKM
Chain of CDK1/CyclinB (h) (P14635 whole entry partner): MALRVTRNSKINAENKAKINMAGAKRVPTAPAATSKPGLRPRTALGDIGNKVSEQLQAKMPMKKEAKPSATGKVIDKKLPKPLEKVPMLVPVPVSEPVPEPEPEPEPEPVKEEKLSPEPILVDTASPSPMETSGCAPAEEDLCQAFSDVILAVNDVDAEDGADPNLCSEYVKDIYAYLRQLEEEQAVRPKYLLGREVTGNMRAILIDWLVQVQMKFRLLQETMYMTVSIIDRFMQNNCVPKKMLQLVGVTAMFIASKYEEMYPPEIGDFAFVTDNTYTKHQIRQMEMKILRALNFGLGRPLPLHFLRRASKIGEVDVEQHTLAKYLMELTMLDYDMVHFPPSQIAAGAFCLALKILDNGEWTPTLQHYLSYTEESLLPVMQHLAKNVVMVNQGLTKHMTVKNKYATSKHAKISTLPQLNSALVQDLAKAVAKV

## O=C1Nc2ncnc3c2C1=CNc1cc(ccc1Cl)OCCCCC(=O)N1CCN3CC1 (mixture of isomers) [Compound 13]
PLK4 (h)
  IC50: > 10 µM
AuroraB (h)
  IC50: > 10 µM
A2780
  IC50: > 10 µM
SKOV3
  IC50: > 10 µM
HT-29
  IC50: > 10 µM
HCT-116
  IC50: > 10 µM
Colo205
  IC50: > 10 µM
A549
  IC50: > 10 µM
H460
  IC50: > 10 µM
MDA/MB231
  IC50: > 10 µM
MCF-7
  IC50: > 10 µM
DU-145
  IC50: > 10 µM
A431
  IC50: > 10 µM
U87MG
  IC50: > 10 µM
PC-3
  IC50: > 10 µM
SK-N-SH
  IC50: > 10 µM

## O=C1Nc2ncnc3c2C1=CNc1ccc(c(Cl)c1)OCCCCCC(=O)N1CCN3CC1 (mixture of isomers) [Compound 14]
PLK4 (h)
  IC50: > 10 µM
AuroraB (h)
  IC50: > 10 µM
SKOV3
  IC50: > 10 µM
HT-29
  IC50: > 10 µM
HCT-116
  IC50: > 10 µM
Colo205
  IC50: > 10 µM
H1299
  IC50: > 10 µM
A549
  IC50: > 10 µM
H460
  IC50: > 10 µM
MDA/MB231
  IC50: > 10 µM
MCF-7
  IC50: > 10 µM
DU-145
  IC50: > 10 µM
A431
  IC50: > 10 µM
PC-3
  IC50: > 10 µM
SK-N-SH
  IC50: > 10 µM

## O=C1Nc2ncnc3c2C1=CNc1ccc(cc1)S(=O)(=O)NCCCCC(=O)N1CCN3CC1 (mixture of isomers) [Compound 15]
PLK4 (h)
  IC50: 5.5 µM
AuroraB (h)
  IC50: > 10 µM
A2780
  IC50: > 10 µM
SKOV3
  IC50: > 10 µM
HT-29
  IC50: > 10 µM
HCT-116
  IC50: > 10 µM
Colo205
  IC50: > 10 µM
A549
  IC50: > 10 µM
H460
  IC50: > 10 µM
MDA/MB231
  IC50: > 10 µM
MCF-7
  IC50: > 10 µM
DU-145
  IC50: > 10 µM
A431
  IC50: > 10 µM
U87MG
  IC50: > 10 µM
PC-3
  IC50: > 10 µM
SK-N-SH
  IC50: > 10 µM

## CC(C)N1CCCC(=O)N2CCN(CC2)c2ncnc3c2C(=CNc2ccc(F)c(c2)C1)C(=O)N3 (mixture of isomers) [Compound 30]
PLK4 (h)
  PLK4 pIC50: <5
SKOV3
  pIC50 SKOV3: <5
HT-29
  pIC50 HT-29: <5
Colo205
  pIC50 Colo205: <5
A549
  pIC50 A549: <5
H460
  pIC50 H460: <5
MCF-7
  pIC50 MCF-7: <5
DU-145
  pIC50 DU-145: <5
A431
  pIC50 A431: <5
PC-3
  pIC50 PC-3: <5
SK-N-SH
  pIC50 SK-N-SH: <5

## COc1ccc2cc1OCCCC(=O)N(C(C)C)CCCCN(C)c1ncnc3c1C(=CN2)C(=O)N3 (mixture of isomers) [Compound 33]
PLK4 (h)
  PLK4 pIC50: 5.27
AuroraB (h)
  AuroraB pIC50: 5
GSK3β (h)
  GSK3B pIC50: 5.33
CDK1/CyclinB (h)
  CDK1 pIC50: 5.14
SKOV3
  pIC50 SKOV3: <5
HT-29
  pIC50 HT-29: <5
Colo205
  pIC50 Colo205: <5
A549
  pIC50 A549: <5
H460
  pIC50 H460: <5
MCF-7
  pIC50 MCF-7: 4.99
DU-145
  pIC50 DU-145: <5
A431
  pIC50 A431: <5
PC-3
  pIC50 PC-3: <5
SK-N-SH
  pIC50 SK-N-SH: 5.27
